Reference: patent US20170281676A1, “HIV-CURE” (Lupus Foundation of Gainesville, priority 2016, published 2017)
Where two headings read alike, the source gives them in different places.

Tests used:
[1] = in vivo; cited from earlier work
[2] = tested on: Feline Immunodeficiency Virus (FIV); conditions: by denaturing their molecules; cited from earlier work
[3] = tested on: primary human brain microvascular endothelial cells; conditions: concentrations equivalent to 79 mg/dl and 237 mg/dl; cited from earlier work
[4] = tested on: human macrophage hybridoma cell line and primary monocytes; conditions: ethanol equivalent to 115, 345 and 690 mg/dl, 16 hours, then infected with HIV-1; cited from earlier work
HIV [5] = conditions: HIV-positive person, 2 years after discharge; earlier viral load 60,000 copies per ml; never on antiretroviral medication
Source text: (§1) A person was brought to the emergency room by ambulance. The inventor was called to intubate for respiratory support. […] They were intubated with propofol and admitted to ICU. […] During the ICU stay, they were maintained in coma with propofol infusions and some opioid analgesics and muscle paralyzers, intubated and mechanically ventilated. Fluids given were mostly Ringer's lactate and dextrose 5% in water. Due to lack of history, the ICU staff assumed they were a chronic alcoholic. […] So, they treated the patient with ethanol infusion, trying to decrease the level slowly over days.

[6] = human, in vivo
Source text: as §1

[7] = tested on: bloodstream catheter-related infections; conditions: injected preventively in central venous catheters; cited from earlier work
[8] = in vivo; cited from earlier work; remark: listed apart in the source
[9] = tested on: peripheral blood lymphocytes; conditions: concentrations 300-790 mg/dl; cited from earlier work
HIV virus [10] = conditions: cited from earlier work
[11] = in vivo; cited from earlier work; remark: listed apart in the source
HIV-1 = conditions: cited from earlier work
HIV [12] = conditions: by denaturing their molecules; cited from earlier work
HIV virus [13] = conditions: surfaces, 70% v/v ethanol, cited from earlier work
[14] = human, in vivo; remark: listed apart in the source
[15] = water, alcohol, and organic solvents; cited from earlier work
[16] = monkeys, 100 ppm for 2 years; cited from earlier work
[17] = mice, cited from earlier work
[18] = humans exposed in workplace; cited from earlier work
[19] = most animal species; cited from earlier work
[20] = in vivo; cited from earlier work; remark: listed apart in the source

SMILES: CCO [ethanol]
- blood level at usual starting of a comatose state [1]: 400 mg/dL
- inactivation of FIV in vitro [2]: inactivate
- apoptosis induced by HIV-1 proteins [3]: strongly potentiate
- effects in the immunogenic tests of the cells [4]: immunosuppressive effects
- HIV viral load (HIV [5]): undetectable
- permanent organ damage [6]: without causing any permanent organ damage
- risk of bloodstream catheter-related infections [7]: decrease the risk
- placental penetration [8]: penetrates well the placenta
- HIV DNA in peripheral blood lymphocytes and their proliferation [9]: increase
- damage to the product (HIV virus [10]; human albumin and plasma products at 18,000 mg/dl and higher): no damage to the product was caused
- concentration used for in vitro inactivation of HIV virus (HIV virus [10]; human albumin and plasma products, and even higher): ≥ 18,000 mg/dl
- factor between breath and blood concentrations [11]: around 2300
- rise of serum concentration after loading dose [11]: about 100 mg/dL
- HIV-1 replication, another study (HIV-1; ethanol tested at 115, 345 and 690 mg/dl): same results
- HIV-1 replication (HIV-1; human peripheral blood mononuclear cells, levels at the range of 400 mg/dl or less): increase the HIV-1 replication
- inactivation of HIV in vitro (HIV [12]): inactivate
- time of contact needed for the inactivation of HIV virus (HIV virus [13]; in some conditions, up to): up to 4 minutes
- time of contact needed for the inactivation of HIV virus (HIV virus [13]): 2 min
- time to reach a level below 100 mg/dl [14]: 16 to 20 h

SMILES: OCCO [ethylene glycol]
- inactivation of FIV in vitro [2]: inactivate
- inactivation of HIV in vitro (HIV [12]): inactivate

SMILES: C1CO1 [ethylene oxide]
- solubility [15]: dissolves easily
- mortality [16]: did not have increased mortality
- mortality ([17]; 100 ppm for 2 years): did not have increased mortality
- mortality ([17]; exposure to 400 ppm for 14 days): no death
- mortality ([17]; higher levels like 800 ppm): deadly in 4 hours
- mortality [18]: no increase in mortality

SMILES: CC(C)O [isopropanol]
- inactivation of FIV in vitro [2]: inactivate
- median lethal dose [19]: 4000 mg/kg
- serum elimination half-life [20]: 2.5 to 8 h
- inactivation of HIV in vitro (HIV [12]): inactivate

SMILES: CO [methanol]
- inactivation of FIV in vitro [2]: inactivate
- inactivation of HIV in vitro (HIV [12]): inactivate
